The record followed here is US5814634A, “Alkylenediamine derivative anti-ulcer drug and antibacterial drug” (Shiseido Co. Ltd., priority 1996, dated 1998).

In one data set the test system is stress ulcer. The data set is described as follows: WIS: Restraint and Water Immersion Stress-Induced Ulcer Inhibition Test. Format: in vivo, rat (male Crj:SD or Slc:SD). To be noted: 100 mg/kg oral, rats, water immersion stress 7 hours. Put shortly:
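Fasted male SD rats (6–7 weeks, 5–8 per group) received compound orally at 100 mg/kg in 0.3% CMC-Na or 0.05% Tween 80; 10 min later, restraint with water immersion (21 °C) for 7 h. Summed glandular erosion length gave the ulcer index; inhibition (%) versus vehicle controls.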

Another data set is described as follows: in vitro. As to conditions: rabbit, gastric mucosal cells.
Another data set concerns Male Slc:ICR mice. The arrangement: species or system mouse (male Slc:ICR). As to conditions: mouse, in vivo. An outline of the steps:
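Fasted 5-week-old male mice (3 to 5 per group) received a single oral 2,000 mg/kg dose in 0.5% sodium carboxymethyl cellulose, with vehicle controls. Behavior and body weight were followed daily and organs examined at death or one week post-dose. Toxicity was scored 1-5 from mortality and behavioral or organ findings.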

Data set [1] deals with isolated gastric fundic gland. The data set is described as follows: CAP: Acid Secretion Inhibition Test In Vitro ([14C]-aminopyrine uptake). Format: cell-based, rabbit (male Japanese White). As to conditions: Oryctolagus cuniculus, 40 min; 10^-5 M compound, 10^-5 M histamine, rabbit isolated gastric fundic gland, 37° C., 40 minutes; read-out: CAP: acid secretion inhibitory rate. An outline of the steps:
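Fundic gland suspension (1.6×10^6 cells/ml in HEPES nutrient buffer) was stimulated with histamine 10^-5 M plus test compound 10^-5 M (final) and [14C]-aminopyrine 0.05 μCi/ml, then shaken 40 min at 37 °C. Pellet and supernatant were scintillation-counted to give the NaSCN-corrected specific aminopyrine accumulation ratio, in duplicate.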

Consider `CC(C)=CCOc1ccc(C(=O)NCCN2CCOCC2)cc1` [Example 28], for which the “WIS: ulcer formation inhibitory rate” value in the data set on stress ulcer stood at 64%. The cytotoxicity at 4 h, 100 µM in the data set “in vitro” was -39%. Besides, the “AT: toxicity at single dose, 5 levels” value in the data set on Male Slc:ICR mice is recorded as 3. Further, the inhibition at 10 µM in data set [1] is 88%.

As for `CC(C)=CCC/C(C)=C/COc1ccc(C(=O)NCCN2CCOCC2)cc1` [Example 31], in the data set with stress ulcer, the “WIS: ulcer formation inhibitory rate” value turned out to be 54%. Further, the cytotoxicity at 4 h, 100 µM in “in vitro” came to 15%. The “AT: toxicity at single dose, 5 levels” value in the data set with Male Slc:ICR mice is reported as 5. Moreover, the inhibition at 10 µM in data set [1] was determined as 99%.

For `CC(C)=CCOc1ccc(C(=O)NCCN2CCOCC2)cc1OCC=C(C)C` [Example 35], the “WIS: ulcer formation inhibitory rate” value in the data set on stress ulcer was determined as 48%. Further, in “in vitro”, the cytotoxicity at 4 h, 100 µM is -17%. For the same compound, the “AT: toxicity at single dose, 5 levels” value with Male Slc:ICR mice worked out at 4. Further, the inhibition at 10 µM in data set [1] is 100%.
